Patent publication US20220041559A1, “BENZO-AND PYRIDO-PYRAZOLES AS PROTEIN KINASE INHIBITORS” (ROTTAPHARM BIOTECH S.R.L., priority 2019, published 2022)
pIC50: −log10 of the molar value.

Key:
[1] = biological target: T1, VEGFR2 (KDR) kinase (Homo sapiens, UniProt P35968); assay: ADP-Glo in vitro kinase assay, VEGFR2 kinase inhibition; type: biochemical; details: for pIC50: ATP 50 μM, 30 minutes at room temperature; for VEGFR2 kinase inhibition, result in words: Table 19
T1 construct: purchased SignalChem
Procedure: (§1) The ADP-Glo™ Kinase Assay (Promega), monitoring ADP produced in the kinase reaction, was performed in two steps. In the first one, after the kinase reaction, the ADP-Glo™ Reagent is added to terminate the kinase reaction and deplete the remaining ATP. In the second step, the Kinase Detection Reagent is added to simultaneously convert ADP to ATP (ATPn or newly synthesized ATP) and introduce luciferase and luciferin, allowing the ATPn to be measured (luciferase/luciferin reaction). The amount of light generated correlates with the amount of ATPn (indirectly with the ADP produced in kinase reaction).
(§2) Kinase reaction was performed in 10 μl in a white 384-well plate, inhibitor solutions in DMSO/Kinase buffer (40 mM Tris-Cl, 20 mM MgCl2, 0.1 mg/ml BSA, 50 μM DTT, pH 7.5) and VEGFR2 (KDR) kinase in Kinase buffer (SignalChem, 0.5 ng/μl final concentration in assay) were pre-incubate 15 minutes at room temperature. At the kinase concentration selected, a signal-to negative control ratio >10 was calculated, according to supplier indication. In samples representing the Total enzymatic activity or the negative control (no enzyme), inhibitor solution was replaced by diluents (1 DMSO in kinase buffer, final concentration) or ultra-pure water, respectively.
(§3) The range of inhibitor concentrations was from 10^−11 M up to 3×10^−6 M (final concentration in assay) and each experimental point was performed in duplicate.
(§4) To start the reaction, a substrate/ATP mix (50 μM final concentration, near to ATP Km value) was added to each sample and after 30 minutes incubation at room temperature, ADP-Glo™ Reagent and Kinase Detection Reagent, incubated in sequence according to the respective incubation time and supplier indication, allowed to stop and develop the kinase reaction. The luminescence was measured with a plate-reading luminometer (Envision 2104 Multilabel reader, PerkinElmer). The percentage of inhibition was calculated towards the Total enzymatic activity and the corresponding curves were analyzed by non linear curve fitting (GraphPad software, version 7 for Windows), allowing to calculate the IC50 value±standard error of the value

[2] = biological target: EGFR (Homo sapiens, UniProt P00533); assay: ADP-Glo in vitro kinase assay, EGFR kinase inhibition; type: biochemical; design: purchased SignalChem; details: for pIC50: ATP 10 μM, 30 minutes at room temperature; for EGFR kinase inhibition, result in words: text summary of Table 18
Procedure: as §1
as §2, with “EGFR” for “VEGFR2 (KDR)”, “2.5” for “0.5”, “selected” for “selected,”, “activity (no inhibitor)” for “activity”
as §3
as §4, with “mix (ATP 10” for “mix (50”, “the estimate.” for “the value”

[3] = biological target: human FynB (Homo sapiens, UniProt P06241); assay: Inhibition of FynB-induced Tau(Y18)-phosphorylation (cell-based assay, HEK293); details: for pIC50: HEK293 over-expressing FynB and Tau 0N4R, incubation 6 or 24 hours, ELISA; for Inhibition of FynB-induced Tau(Y18)-phosphorylation, result in words: summary of Table 20
Procedure: HEK293 cells (Human Embryonic Kidney 293) were seeded at 6×10^5 in poly-D-lysine 12 w microplates and grown adherent in medium DMEM/10% FBS at 37° C. with 5% CO2. After 24 h, cells were transfected in order to over-express either constitutively active form of human FynB and Tau protein (isoform 0N4R), through an optimized Lipofectamine® 3000 Transfection protocol (Life Technologies™). A non-transfected sample (negative control) was included in every experiment.
Twenty-four hours from transfection, treatments of cells were performed by adding fresh medium containing diluent (DMSO 0.1% final concentration) or test compounds. The incubation was carried out for 6 or 24 hours at 37° C. with 5% CO2. All experimental conditions were performed in duplicate.
At the end of the incubation, the medium was removed and cellular lysates were obtained by adding M-PER lysis buffer containing a 1× Protease/Phosphatase inhibitors cocktail. Then, lysates were transferred into Eppendorf tubes, sonicated and stored at −80° C.
Protein content was measured by Bradford method. Lysates were analyzed by a customized ELISA assay for Tau phosphorylation (Tyrosine 18 residue-Fyn mediated) and Total amount determination. The net OD values were used to calculate the inhibitory effect of compounds.

[4] = biological target: T2, FYN (Homo sapiens, UniProt P06241); assay: Z'-LYTE in vitro kinase assay, FYN kinase inhibition; type: biochemical; details: for pIC50: near-Km ATP, 60 minutes at 25° C.
T2 construct: purchased CarnaBioscience
Procedure: Assays to determine the kinase inhibitory activity of compounds were performed using an automatic liquid handling device (Microlab STAR Hamilton) and Z′-LYTE™ Kinase Assay Platform (Invitrogen), a Fluorescence Resonance Energy Transfer (FRET)-based assay platform compatible with high-throughput screening (HTS) applications. The assay employs a fluorescence-based, coupled-enzyme format and utilizes the differential sensitivity of phosphorylated and non-phosphorylated peptides to proteolytic cleavage.
Test compounds were evaluated towards active FYN (CarnaBioscience). The enzyme was incubated in a 384 low-volume microplate with a synthetic peptide-substrate, ATP and different inhibitor concentrations, ranging from 10^−10 M up to 10^−5 M final concentration. Samples representing the 0% inhibition (or total enzymatic activity) were in the presence of compound diluent (1% DMSO final) in Reaction Buffer (50 mM Hepes, 10 mM MgCl2, 1 mM EGTA, 0.01% Brij-35, pH 7.5).
A near-Km ATP concentrations for the kinase and an optimal enzyme concentration that phosphorylates 20-40% of the Z′-LYTE™ Tyr 2 Peptide in a one-hour incubation, were selected. All reagents were diluted in reaction buffer and the kinase reaction was carried out in a total volume of 10 μl, for 60 minutes at 25° C. The 0% Phosphorylation (i.e. no ATP) and 100% Phosphorylation (i.e. synthetically phosphorylated peptide supplied) Assay Controls, included in each plate, allowed to calculate the percent phosphorylation achieved in the specific reaction well. The 0% Inhibition and 0% Phosphorylation (i.e. 100% Inhibition) Controls define the dynamic range in the screen. At the end of incubation, a secondary reaction (the Development Reaction) started by adding 5 μl of Development Reagent, containing a site-specific protease that recognizes and cleaves non-phosphorylated peptides, and was interrupted after 60 minutes with 5 μl/sample of Stop Reagent. Measurement of the Coumarin (Ex. 400 nm, Em. 460 nm) and Fluorescein (Ex. 400 nm, Em. 535 nm) emission signals were performed by a fluorescence plate reader (Envision, PerkinElmer).
Results are expressed as percentage of inhibition and the IC50 values were calculated by non-linear curve fitting using GraphPad™ Prism software.

[5] = test system: U87MG; assay: Cell viability, ViaCount assay, U87MG; type: cell-based, human; details: tested cell lines (U87MG, U373)
Procedure: U87MG: a human glioblastoma astrocytoma from ATCC. Grown in DMEM medium supplemented with 10% FBS at 37° C. with CO2.
Cell viability and total cell count was performed with ViaCount Assay on Guava® Systems, which was able to distinguish viable and non-viable cells based on differential permeabilities of two DNA-binding dyes in the Guava ViaCount® Reagent. 2×10^4 cancer cells were plated in 24 well in DMEM 10%. After 72 h cells were treated with the different compounds for 24, 72 h or 7 days, with a medium change and a second treatment with the product on day 4. At the end of the incubation period the analysis was done following the kit instructions.

human FynB, sequence (P06241 271-524 limits assumed): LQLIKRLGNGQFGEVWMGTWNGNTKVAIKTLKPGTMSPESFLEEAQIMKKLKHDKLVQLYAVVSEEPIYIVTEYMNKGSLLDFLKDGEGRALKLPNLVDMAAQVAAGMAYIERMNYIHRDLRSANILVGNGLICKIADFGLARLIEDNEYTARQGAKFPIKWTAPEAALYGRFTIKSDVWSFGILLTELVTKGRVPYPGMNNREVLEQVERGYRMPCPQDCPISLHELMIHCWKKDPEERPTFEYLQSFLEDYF
T2 sequence (P06241 whole entry): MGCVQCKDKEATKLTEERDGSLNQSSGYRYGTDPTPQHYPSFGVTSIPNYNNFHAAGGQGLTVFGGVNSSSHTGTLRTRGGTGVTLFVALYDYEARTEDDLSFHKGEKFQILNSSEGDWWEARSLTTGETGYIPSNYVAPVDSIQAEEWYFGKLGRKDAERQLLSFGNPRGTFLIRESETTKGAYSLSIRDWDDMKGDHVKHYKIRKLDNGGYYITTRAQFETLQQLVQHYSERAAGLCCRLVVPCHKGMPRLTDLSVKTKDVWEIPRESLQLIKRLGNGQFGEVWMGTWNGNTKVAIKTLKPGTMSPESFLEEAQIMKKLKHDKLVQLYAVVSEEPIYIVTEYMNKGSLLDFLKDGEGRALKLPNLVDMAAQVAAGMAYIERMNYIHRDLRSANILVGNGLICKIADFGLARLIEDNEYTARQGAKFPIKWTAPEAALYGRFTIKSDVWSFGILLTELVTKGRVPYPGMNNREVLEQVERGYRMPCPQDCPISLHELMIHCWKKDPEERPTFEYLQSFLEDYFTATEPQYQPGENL
T1 sequence (P35968 20-1356): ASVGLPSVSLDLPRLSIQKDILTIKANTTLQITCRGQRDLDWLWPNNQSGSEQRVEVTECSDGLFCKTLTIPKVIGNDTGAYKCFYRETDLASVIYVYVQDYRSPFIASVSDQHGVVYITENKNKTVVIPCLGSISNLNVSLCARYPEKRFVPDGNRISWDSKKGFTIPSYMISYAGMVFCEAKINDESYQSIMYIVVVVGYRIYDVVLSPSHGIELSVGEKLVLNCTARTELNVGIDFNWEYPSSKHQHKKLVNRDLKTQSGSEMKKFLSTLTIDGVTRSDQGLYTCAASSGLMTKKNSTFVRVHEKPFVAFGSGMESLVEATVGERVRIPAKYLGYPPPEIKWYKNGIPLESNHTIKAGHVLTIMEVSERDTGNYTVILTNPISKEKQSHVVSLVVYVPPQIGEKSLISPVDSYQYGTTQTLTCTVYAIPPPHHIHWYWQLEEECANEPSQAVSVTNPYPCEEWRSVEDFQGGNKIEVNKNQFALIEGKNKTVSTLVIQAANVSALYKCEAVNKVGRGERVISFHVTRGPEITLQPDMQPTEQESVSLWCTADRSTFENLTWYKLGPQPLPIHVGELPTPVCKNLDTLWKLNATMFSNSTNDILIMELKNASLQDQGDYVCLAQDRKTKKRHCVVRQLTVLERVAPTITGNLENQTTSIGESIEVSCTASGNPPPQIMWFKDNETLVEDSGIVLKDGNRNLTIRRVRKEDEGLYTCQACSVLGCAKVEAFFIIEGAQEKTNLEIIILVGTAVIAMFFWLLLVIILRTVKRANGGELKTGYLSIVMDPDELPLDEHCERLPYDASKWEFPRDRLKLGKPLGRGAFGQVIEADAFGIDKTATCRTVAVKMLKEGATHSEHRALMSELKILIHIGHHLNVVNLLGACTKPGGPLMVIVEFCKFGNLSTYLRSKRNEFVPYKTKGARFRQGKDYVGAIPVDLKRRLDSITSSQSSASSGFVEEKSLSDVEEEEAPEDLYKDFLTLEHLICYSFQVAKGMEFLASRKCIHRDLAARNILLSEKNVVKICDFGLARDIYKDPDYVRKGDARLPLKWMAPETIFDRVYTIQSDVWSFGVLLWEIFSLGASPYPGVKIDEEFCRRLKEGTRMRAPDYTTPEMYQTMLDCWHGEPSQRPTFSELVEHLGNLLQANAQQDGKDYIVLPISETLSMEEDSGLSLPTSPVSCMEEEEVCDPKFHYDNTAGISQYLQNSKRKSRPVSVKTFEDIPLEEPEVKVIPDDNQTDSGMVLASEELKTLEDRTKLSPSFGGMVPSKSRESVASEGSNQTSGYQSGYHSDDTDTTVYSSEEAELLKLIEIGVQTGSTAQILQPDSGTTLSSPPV
EGFR, sequence (P00533 25-1210): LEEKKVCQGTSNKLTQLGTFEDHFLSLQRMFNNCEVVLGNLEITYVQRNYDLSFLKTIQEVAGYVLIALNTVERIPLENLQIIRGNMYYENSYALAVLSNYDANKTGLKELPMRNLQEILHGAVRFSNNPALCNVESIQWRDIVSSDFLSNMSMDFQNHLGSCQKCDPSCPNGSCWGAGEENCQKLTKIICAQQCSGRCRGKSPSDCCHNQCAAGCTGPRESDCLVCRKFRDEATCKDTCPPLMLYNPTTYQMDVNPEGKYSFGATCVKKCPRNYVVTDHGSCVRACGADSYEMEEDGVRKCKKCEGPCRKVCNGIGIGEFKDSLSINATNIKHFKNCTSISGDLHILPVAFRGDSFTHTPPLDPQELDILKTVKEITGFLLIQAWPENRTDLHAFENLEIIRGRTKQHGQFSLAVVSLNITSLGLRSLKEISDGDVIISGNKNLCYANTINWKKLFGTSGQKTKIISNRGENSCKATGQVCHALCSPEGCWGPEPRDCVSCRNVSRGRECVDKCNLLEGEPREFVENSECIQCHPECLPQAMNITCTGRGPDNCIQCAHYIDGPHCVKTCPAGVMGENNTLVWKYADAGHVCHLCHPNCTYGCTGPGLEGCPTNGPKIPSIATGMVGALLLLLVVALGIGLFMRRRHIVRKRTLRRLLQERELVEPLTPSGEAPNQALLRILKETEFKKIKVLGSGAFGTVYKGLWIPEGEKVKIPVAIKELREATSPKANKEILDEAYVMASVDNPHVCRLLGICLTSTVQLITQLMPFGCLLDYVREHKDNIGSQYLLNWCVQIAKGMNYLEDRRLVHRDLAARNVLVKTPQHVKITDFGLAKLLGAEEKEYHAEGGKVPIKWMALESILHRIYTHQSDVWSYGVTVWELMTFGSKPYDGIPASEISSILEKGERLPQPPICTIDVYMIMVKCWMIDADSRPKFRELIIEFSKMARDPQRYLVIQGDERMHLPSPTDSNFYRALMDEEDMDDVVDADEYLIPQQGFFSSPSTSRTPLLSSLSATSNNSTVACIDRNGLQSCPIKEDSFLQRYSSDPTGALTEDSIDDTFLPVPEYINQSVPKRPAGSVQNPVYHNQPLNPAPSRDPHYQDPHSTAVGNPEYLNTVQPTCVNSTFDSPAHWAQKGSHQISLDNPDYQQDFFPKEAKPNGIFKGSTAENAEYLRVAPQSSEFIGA

Structure (SMILES) | pIC50 [1] | VEGFR2 kinase inhibition, result in words [1] | pIC50 [2] | EGFR kinase inhibition, result in words [2] | pIC50 [3] | Inhibition of FynB-induced Tau(Y18)-phosphorylation, result in words [3] | pIC50 [4] | reduction of cell viability, result in words [5] | FYN kinase inhibition, result in words ([4]; Table 17)
CN1CCN(c2ccc(C(=O)Nc3n[nH]c4nc(Nc5ccccc5F)ccc34)cc2)CC1 [Compound 48, N-(6-((2-fluorophenyl)amino)-1H-pyrazolo[3,4-b]pyridin-3-yl)-4-(4-methylpiperazin-1-yl)benzamide] | 9.00 | more potent | 7.82 | more active | 6.59 | best inhibitors | 6.67 | – | –
Cc1ccc(Nc2ccc3c(NC(=O)c4ccc(C5CCN(C)CC5)cc4)n[nH]c3n2)cc1 [Compound 23, 4-(1-methylpiperidin-4-yl)-N-(6-(p-tolyamino)-1H-pyrazolo[3,4-b]pyridin-3-yl)benzamide] | 8.59 | – | ≤ 6.00 | – | 6.64 | – | 6.95 | – | –
CN1CCC(c2ccc(C(=O)Nc3n[nH]c4nc(Nc5cccc(F)c5F)ccc34)cc2)CC1 [Compound 20, N-(6-((2,3-difluorophenyl)amino)-1H-pyrazolo[3,4-b]pyridin-3-yl)-4-(1-methylpiperidin-4-yl)benzamide] | 6.98 | – | 8.05 | more active | 6.63 | best inhibitors | 6.68 | – | –
CN1CCC(c2ccc(C(=O)Nc3n[nH]c4nc(Nc5ccc6c(c5)OCO6)ccc34)cc2)CC1 [Compound 28, N-(6-(benzo[d][1,3]dioxol-5-ylamino)-1H-pyrazolo[3,4-b]pyridin-3-yl)-4-(1-methylpiperidin-4-yl)benzamide] | 9.00 | more potent | ≤ 6.00 | – | 7.00 | best inhibitors | 7.14 | active in reducing cell viability | more active
